{"source": "patent US6608069B1", "about": "“Phenyl xanthine derivatives” (SmithKline Beecham Corporation, priority 1998, dated 2003)", "key": {"[1]": {"tested_on": "male Lewis rats", "test": "Carrageenan Pleurisy Assay", "format": "in vivo", "conditions": "carrageenan 0.075 mg/rat, harvested four hours after carrageenan; for % Inhibition Cells: inflammatory cells (neutrophils) in pleural exudate vs vehicle control; for % Inhibition Exudate: pleural edema (exudate) vs vehicle control", "protocol": "2) Carrageenan Pleurisy Assay\nThe antiinflammatory activity of compounds of the invention was determined by the procedure of Vinegar, R, et al., Proc. Soc. Exp. Biol. Med., 1981, 168, 24-32, using male Lewis rats of 150±20 grams. The carrageenan dose was 0.075 mg/rat. Pleural exudate was harvested four hours after injection of carrageenan. Acute antiinflammatory activity was determined by inhibition of pleural edema and inflammatory cells (neutrophils) from a negative (vehicle) control group."}, "[2]": {"tested_on": "cytokine-stimulated human umbilical vein endothelial cells", "test": "Cell Adhesion Assay: adherence of fluorescently-labelled leukocytes to endothelial cell monolayers", "format": "cell-based", "conditions": "inhibition of cytokine-stimulated adhesion minus basal adhesion; calcein-AM labelled leukocytes on HUVEC monolayers", "procedure,_shortened": "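HUVEC monolayers were stimulated with cytokine, and adhesion of calcein-AM-labelled leukocytes was quantified by fluorescence. Inhibition was calculated on cytokine-stimulated adhesion after subtracting basal adhesion of unstimulated cells.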"}}, "data": [{"smiles": "COCCOCCOCCOCCOCCOCCOCCOCCOCCOC(=O)/C=C/c1ccc(-c2nc3c(=O)n(Cc4ccccc4)c(=O)n(Cc4ccccc4)c3[nH]2)cc1", "note": "[Example 34]", "values": [{"measurement": "% Inhibition Cells", "setting": "[1]", "result": 20, "unit": "%"}, {"measurement": "% Inhibition Exudate", "setting": "[1]", "result": 59, "unit": "%"}, {"measurement": "IC50", "setting": "[2]", "result": "< 0.1", "unit": "nM"}]}, {"smiles": "COCCOCCOCCOCCOCCOCCOCCOCCOCCOC(=O)/C=C/c1ccc(-c2nc3c(c(=O)n(CC4CCCCC4)c(=O)n3CC3CCCCC3)n2C)cc1", "note": "[Example 79, (E)-4-(1,3-Bis(cyclohexylmethyl)-2,3,6,7-tetrahydro-2,6-dioxo-7-methyl-1H-purin-8-yl)cinnamic Acid Nonaethylene Glycol Methyl Ether Ester]", "values": [{"measurement": "% Inhibition Cells", "setting": "[1]", "result": 55, "unit": "%"}, {"measurement": "% Inhibition Exudate", "setting": "[1]", "result": 7, "unit": "%"}, {"measurement": "IC50", "setting": "[2]", "result": "3 ± 1", "unit": "nM"}]}, {"smiles": "COCCOCCOCCOCCOCCOCCOCCOCCOCCOC(=O)/C=C/c1ccc(-c2nc3c(=O)n(CC4CCCC4)c(=O)n(CC4CCCC4)c3[nH]2)cc1", "note": "[Example 36, (E)-4-(1,3-bis(cyclopentylmethyl)-1,2,3,6-tetrahydro-2,6-dioxo-9H-purin-8-yl)cinnamic Acid Nonaethylene Glycol Methyl Ether Ester]", "values": [{"measurement": "% Inhibition Cells", "setting": "[1]", "result": 47, "unit": "%"}, {"measurement": "% Inhibition Exudate", "setting": "[1]", "result": 38, "unit": "%"}, {"measurement": "IC50", "setting": "[2]", "result": "11 ± 8", "unit": "nM"}]}, {"smiles": "CCCn1c(=O)n(CC2CCCCC2)c(=O)c2nc(-c3ccc(/C=C/C(=O)NCCOCCOCCOCCOCCOCCOCCOCCOCCOC)cc3)[nH]c21", "note": "[Example 74, (E)-4-((1-cyclohexylmethyl-3-propyl)-1,2,3,6-tetrahydro-2,6-dioxo-9H-purin-8-yl)cinnamic Acid Nonaethylene Glycol Methyl Ether Amide]", "values": [{"measurement": "% Inhibition Cells", "setting": "[1]", "result": 85, "unit": "%"}, {"measurement": "% Inhibition Exudate", "setting": "[1]", "result": 70, "unit": "%"}, {"measurement": "IC50", "setting": "[2]", "result": "360 ± 160", "unit": "nM"}]}, {"smiles": "CCCn1c(=O)c2nc(-c3ccc(/C=C/C(=O)NCCOCCOCCOCCOCCOCCOCCOCCOCCOC)cc3)[nH]c2n(CC2CCCCC2)c1=O", "note": "[Example 73, (E)-4-((1-propyl-3-cyclohexylmethyl)-1,2,3,6-tetrahydro-2,6-dioxo-9H-purin-8-yl)cinnamic Acid Nonaethylene Glycol Methyl Ether Amide]", "values": [{"measurement": "% Inhibition Cells", "setting": "[1]", "result": 0, "unit": "%"}, {"measurement": "% Inhibition Exudate", "setting": "[1]", "result": 0, "unit": "%"}, {"measurement": "IC50", "setting": "[2]", "result": "> 1000", "unit": "nM"}]}, {"smiles": "CCCn1c(=O)n(CC2CCCCC2)c(=O)c2nc(-c3ccc(/C=C/C(=O)OCCOCCOCCOCCOCCOCCOCCOCCOCCOC)cc3)[nH]c21", "note": "[Example 49, (E)-4-((1-cyclohexylmethyl-3-propyl)-1,2,3,6-tetrahydro-2,6-dioxo-9H-purin-8-yl)cinnamic Acid Nonaethylene Glycol Methyl Ether Ester]", "values": [{"measurement": "% Inhibition Cells", "setting": "[1]", "result": 28, "unit": "%"}, {"measurement": "% Inhibition Exudate", "setting": "[1]", "result": 53, "unit": "%"}, {"measurement": "IC50", "setting": "[2]", "result": "13 ± 9", "unit": "nM"}]}, {"smiles": "COCCOCCOCCOCCOCCOCCOCCOCCOCCN(C)C(=O)/C=C/c1ccc(-c2nc3c(=O)n(CC4CCCCC4)c(=O)n(CC4CCCCC4)c3[nH]2)cc1", "note": "[Example 68, (E)-4-(1,3-Bis(cyclohexylmethyl)-1,2,3,6-tetrahydro-2,6-dioxo-9H-purin-8-yl) cinnamic Acid N-methyl Nonaethylene Glycol Methyl Ether Amide]", "values": [{"measurement": "% Inhibition Cells", "setting": "[1]", "result": 92, "unit": "%"}, {"measurement": "% Inhibition Exudate", "setting": "[1]", "result": 80, "unit": "%"}, {"measurement": "IC50", "setting": "[2]", "result": "72 ± 19", "unit": "nM"}]}, {"smiles": "CCCn1c(=O)c2nc(-c3ccc(/C=C/C(=O)OCCOCCOCCOCCOCCOCCOCCOCCOCCOC)cc3)[nH]c2n(CC2CCCCC2)c1=O", "note": "[Example 44, (E)-4-((1-propyl-3-cyclohexylmethyl)-1,2,3,6-tetrahydro-2,6-dioxo-9H-purin-8-yl)cinnamic Acid Nonaethylene Glycol Methyl Ether Ester]", "values": [{"measurement": "% Inhibition Cells", "setting": "[1]", "result": 44, "unit": "%"}, {"measurement": "% Inhibition Exudate", "setting": "[1]", "result": 24, "unit": "%"}, {"measurement": "IC50", "setting": "[2]", "result": "20 ± 10", "unit": "nM"}]}, {"smiles": "O=C(O)/C=C/c1ccc(-c2nc3c(=O)n(Cc4ccccc4F)c(=O)n(Cc4ccccc4F)c3[nH]2)cc1", "note": "[Example 21, (E)-4-(1,3-bis(2-fluorobenzyl)-1,2,3,6-tetrahydro-2,6-dioxo-9H-purin-8-yl)cinnamic Acid]", "values": [{"measurement": "melting point", "result": "> 350", "unit": "°C"}]}, {"smiles": "O=C(O)/C=C/c1ccc(-c2nc3c(=O)n(Cc4ccc(F)cc4)c(=O)n(Cc4ccc(F)cc4)c3[nH]2)cc1", "note": "(hydrate or solvate) [Example 25, (E)-4-(1,3-bis(4-fluorobenzyl)-1,2,3,6-tetrahydro-2,6-dioxo-9H-purin-8-yl)cinnamic Acid]", "values": [{"measurement": "melting point", "result": "> 300", "unit": "°C"}]}, {"smiles": "CCCn1c(=O)c2nc(-c3ccc(/C=C/C(=O)O)cc3)[nH]c2n(CCC)c1=O", "note": "[Example 4, (E)-4-(1,3-bis(propyl)-1,2,3,6-tetrahydro-2,6-dioxo-9H-purin-8-yl)cinnamic Acid]", "values": [{"measurement": "melting point", "result": "> 300", "unit": "°C"}]}, {"smiles": "O=C(O)/C=C/c1ccc(-c2nc3c(=O)n(Cc4cccnc4)c(=O)n(Cc4cccnc4)c3[nH]2)cc1", "note": "(hydrate or solvate) [Example 30, (E)-4-(1,3-Bis(3-pyridinylmethyl)-1,2,3,6-tetrahydro-2,6-dioxo-9H-purin-8-yl)cinnamic Acid]", "values": [{"measurement": "melting point", "result": "> 300", "unit": "°C"}]}, {"smiles": "O=C(O)/C=C/c1ccc(-c2nc3c(=O)n(CC4CCC4)c(=O)n(CC4CCC4)c3[nH]2)cc1", "note": "(hydrate or solvate) [Example 27, (E)-4-(1,3-bis(cyclobutylmethyl)-1,2,3,6-tetrahydro-2,6-dioxo-9H-purin-8-yl)cinnamic Acid]", "values": [{"measurement": "melting point", "result": "> 300", "unit": "°C"}]}]}
